Results published in PubChem BioAssay (NCI).
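GI50 is the concentration that inhibits growth by half. Definition used: TGI = concentration required for complete inhibition of growth.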

Assays:
Assay in all cases: inhibition of tumour cell growth, NCI panel, 384-well format
[1] = tested on: OVCAR-3 ovarian
[2] = tested on: HT29 colon
[3] = tested on: U251 glioblastoma
[4] = tested on: RXF 393 renal
[5] = tested on: EKVX NSCLC
[6] = tested on: CAKI-1 renal
[7] = tested on: K-562 leukemia
[8] = tested on: ACHN renal
[9] = tested on: MALME-3M melanoma
[10] = tested on: SK-OV-3 ovarian
[11] = tested on: UACC-62 melanoma
[12] = tested on: SN12C renal
[13] = tested on: NCI-H460 NSCLC

Cc1cc2c(C(C)C)c(O)c(O)c(C=O)c2c(O)c1-c1c(C)cc2c(C(C)C)c(O)c(O)c(C=O)c2c1O (tested in a mixture with another compound)
GI50 [1]: 1590 nM
TGI [1]: 3460 nM
GI50 [2]: 2880 nM
TGI [2]: 9040 nM
GI50 [3]: 1590 nM
TGI [3]: 3020 nM
GI50 [4]: 604 nM
TGI [4]: 1960 nM
GI50 [5]: 1850 nM
TGI [5]: 3970 nM
GI50 [6]: 2530 nM
TGI [6]: 5930 nM
GI50 [7]: 1400 nM
TGI [7]: 2870 nM
GI50 [8]: 2050 nM
TGI [8]: 4660 nM
GI50 [9]: 1700 nM
TGI [9]: 3470 nM
GI50 [10]: 2580 nM
TGI [10]: 6670 nM
GI50 [11]: 1810 nM
TGI [11]: 3250 nM
GI50 [12]: 1920 nM
TGI [12]: 3730 nM
GI50 [13]: 1900 nM
TGI [13]: 3400 nM
